Consider 30 substances from patent US20240115705A1, “Regulation of Butyrophilin subfamily 3 member A1 (BTN3A1, CD277)” (The J. Gladstone Institutes, a testamentary trust …, priority 2021, published 2024).

This series deals with Daudi-Cas9 cells. The series can be described thus: Cancer-T cell co-culture genome-wide CRISPR knockout screen (Vγ9Vδ2 T cell killing). It counts as cell-based, human.
Setting [1] is: MAGeCK sgRNA test, co-culture screen.
Setting [2] is: log-fold change of sgRNA, surviving cells after co-culture vs baseline, MAGeCK.
Setting [3] is: sgRNA abundance in surviving Daudi-Cas9 KO cells after 24 hours Vγ9Vδ2 T cell co-culture with zoledronate, MAGeCK.
Setting [4] is: sgRNA enriched (TRUE) or depleted (FALSE) after T cell co-culture.

Like-named read-outs stand apart in the source and are kept apart here.

Under setting [1], “PHB_GACCGATTCCGTGGAGTGC: library sgRNA targeting PHB (as printed in the source, key not given here)” registered a score of 6.0021. Further, under setting [2], the LFC is −3.7742. Besides, the treat mean under setting [3] stood at 202.44. The high_in_treatment entry under setting [4] is recorded as “FALSE”.
On to “PNLIPRP1_GCCCCTGAAAATTCTCCCC: library sgRNA targeting PNLIPRP1 (chemistry not given here)”, for which the LFC is −2.1878, the high_in_treatment entry was “FALSE”, the score is 7.0018 and the treat mean is 1182.9.
Substance “PRMT1_TGGTGCTGGACGTCGGCTC: library sgRNA targeting PRMT1 (listed as DNA, chemistry not fully specified)” displayed a score under setting [1] of 6.7595. Also, the LFC under setting [2] is −8.6196. The treat mean under setting [3] was 6.7801. Moreover, the high_in_treatment entry under setting [4] is recorded as “FALSE”.
“PSMG4_CACCTGCGCAACCTCGCCG: library sgRNA targeting PSMG4 (listed as DNA, chemistry not fully specified)” came in with a score under setting [1] of 6.1467. The LFC under setting [2] is on record as −3.4412. Further, the treat mean under setting [3] is given as 279.92. For the same substance, under setting [4], the high_in_treatment entry is listed as “FALSE”.
Regarding “RAB7A_CGGTTCCAGTCTCTCGGTG: library sgRNA targeting RAB7A (listed as DNA, chemistry not fully specified)”, the score under setting [1] was determined as 6.2219. Besides, the LFC under setting [2] is recorded as −4.046. The substance further registered a treat mean under setting [3] of 175.17. Besides, under setting [4], the high_in_treatment result is “FALSE”.
Take “RFXAP_ACAGGGTTGCATCACTAGC: library sgRNA targeting RFXAP (listed as DNA, chemistry not fully specified)”: under setting [1], the score was 10.037. This substance also registered an LFC under setting [2] of 1.6018. Under setting [3], this substance gave a treat mean of 4884.6. In addition, under setting [4], the high_in_treatment entry is reported as “TRUE”.
With “RFXAP_ACGAGGAGACTCACTCGGG: library sgRNA targeting RFXAP (listed as DNA, chemistry not fully specified)”, the score under setting [1] stood at 6.9897. For the same substance, the LFC under setting [2] stood at 2.2103. This substance also displayed a treat mean under setting [3] of 1110.2. In addition, the high_in_treatment result under setting [4] is “TRUE”.
The like results for “RFXAP_AGACACTTCGGACCCTCCG: library sgRNA targeting RFXAP (listed as DNA, chemistry not fully specified)” were, in that order, 10.922, 1.5343, 6378.3 and “TRUE”.
Regarding “RFXAP_CGTTAGGTACCTGTGCGAA: library sgRNA targeting RFXAP (listed as DNA, chemistry not fully specified)”, the score under setting [1] is reported as 7.0414. Under setting [2], this substance yielded an LFC of 1.5428. Under setting [3], this substance displayed a treat mean of 2592.9. Also, the high_in_treatment result under setting [4] was “TRUE”.
“RPP21_GCACTCACGTCTCTGGCGC: library sgRNA targeting RPP21 (as printed in the source, key not given here)” showed a score under setting [1] of 6.2576. For the same substance, the LFC under setting [2] was −7.9412. Moreover, the treat mean under setting [3] turned out to be 9.6859. The high_in_treatment entry under setting [4] is reported as “FALSE”.
Take “RPP25L_TGGCTCTGGGTCGGTTGGA: library sgRNA targeting RPP25L (as printed in the source, key not given here)”: the score under setting [1] was 6.0209. Further, the LFC under setting [2] was −7.7316. Moreover, the treat mean under setting [3] came to 9.1906. Also, the high_in_treatment result under setting [4] was “FALSE”.
Under setting [1], “RPP38_CGATTCTCTCACTGAGCCG: library sgRNA targeting RPP38 (as printed in the source, key not given here)” returned a score of 7.8058. The LFC under setting [2] is recorded as −3.1996. Besides, the treat mean under setting [3] is on record as 558.49. Besides, the high_in_treatment entry under setting [4] was “FALSE”.
“SAE1_TGCTTCTTGTCGGCTTGAA: library sgRNA targeting SAE1 (listed as DNA, chemistry not fully specified)” registered a score under setting [1] of 7.1879. Further, the LFC under setting [2] is recorded as −7.4222. This substance had a treat mean under setting [3] of 19.337. Moreover, under setting [4], the high_in_treatment result is recorded as “FALSE”.
On to “SARS2_GCACGGTGCTCACCACGTC: library sgRNA targeting SARS2 (chemistry not given here)”, for which the LFC is −3.8724, the high_in_treatment result is listed as “FALSE”, the score is 6.2052 and the treat mean was 200.19.
Turning to “SCO1_CACCCCCGTGGTCGCAGAA: library sgRNA targeting SCO1 (listed as DNA, chemistry not fully specified)”, the score under setting [1] worked out at 10.413. Moreover, under setting [2], the LFC is −3.6001. The substance also displayed a treat mean under setting [3] of 714.32. For the same substance, the high_in_treatment entry under setting [4] is on record as “FALSE”.
Turning to “SH3GL1_ACTTCTGTCACCGCCTTGC: library sgRNA targeting SH3GL1 (listed as DNA, chemistry not fully specified)”, under setting [1], the score turned out to be 6.045. Moreover, the LFC under setting [2] is −7.484. Further, the treat mean under setting [3] stood at 11.374. The high_in_treatment result under setting [4] was “FALSE”.
The like results for “SHMT2_CAACCTCACGACCGGATCA: library sgRNA targeting SHMT2 (listed as DNA, chemistry not fully specified)” were, in that order, 5.9975, −5.253, 63.415 and “FALSE”.
The like results for “SHMT2_TGCTCGACTTTTCCGGCCA: library sgRNA targeting SHMT2 (listed as DNA, chemistry not fully specified)” were, in that order, 6.1486, −3.7292, 220.66 and “FALSE”.
Consider “SLC2A4_CAGGTCTGAAGCGCCTGAC: library sgRNA targeting SLC2A4 (listed as DNA, chemistry not fully specified)”, for which the score under setting [1] was found to be 6.0044. Under setting [2], the LFC was 4.6166. Further, under setting [3], the treat mean turned out to be 47.773. For the same substance, the high_in_treatment entry under setting [4] is “TRUE”.
The like results for “SLC22A3_GCCTTCCTCTTCGTCGGCG: library sgRNA targeting SLC22A3 (listed as DNA, chemistry not fully specified)” were, in that order, 6.0158, 1.0179, 4633 and “TRUE”.
For “SNF8_ACCATTGGCGTGGATCCGC: library sgRNA targeting SNF8 (as printed in the source, key not given here)”, under setting [1], the score came to 6.4788. Also, the LFC under setting [2] is −6.2459. Under setting [3], this substance had a treat mean of 35.261. Further, under setting [4], the high_in_treatment result is given as “FALSE”.
In the case of “SPI1_ATACTCGTGCGTTTGGCGT: library sgRNA targeting SPI1 (as printed in the source, key not given here)”, the score under setting [1] was 8.1546. Under setting [2], this substance returned an LFC of 1.1261. Further, the treat mean under setting [3] is reported as 6915.7. Besides, the high_in_treatment result under setting [4] was “TRUE”.
Under setting [1], “SPI1_CACGTCCTCGATACCCCCA: library sgRNA targeting SPI1 (as printed in the source, key not given here)” had a score of 9.6891. For the same substance, under setting [2], the LFC worked out at 1.4776. This substance registered a treat mean under setting [3] of 5441.8. Also, under setting [4], the high_in_treatment entry is “TRUE”.
Substance “SPIB_CCTCGTGGCTGGCCCCGAG: library sgRNA targeting SPIB (as printed in the source, key not given here)” showed a score under setting [1] of 7.9175. In addition, under setting [2], the LFC is listed as 1.2165. For the same substance, under setting [3], the treat mean is given as 5523.4. Besides, the high_in_treatment result under setting [4] is listed as “TRUE”.
Take “SPIB_CGGGTCGAAGGCTTCATAG: library sgRNA targeting SPIB (as printed in the source, key not given here)”: the score under setting [1] is reported as 6.9394. In addition, the LFC under setting [2] was determined as 1.7479. For the same substance, the treat mean under setting [3] was 1900.6. For the same substance, under setting [4], the high_in_treatment entry is “TRUE”.
Under setting [1], “SPIB_CTGGGGCTACTGACGCGCG: library sgRNA targeting SPIB (as printed in the source, key not given here)” displayed a score of 12.692. The same substance displayed an LFC under setting [2] of 1.6241. Further, the treat mean under setting [3] came to 7610.7. In addition, the high_in_treatment entry under setting [4] is listed as “TRUE”.
For “SPIB_GAGGTCTCGGACAGCGAGT: library sgRNA targeting SPIB (as printed in the source, key not given here)”, in that order: 7.1579, 1.2994, 3907.1 and “TRUE”.
“SPIB_GCTAGCGAAGTTCTCCGTG: library sgRNA targeting SPIB (as printed in the source, key not given here)”: under setting [1], the score was determined as 8.8597. Under setting [2], the LFC is reported as 1.4916. Under setting [3], the treat mean stood at 4447.4. In addition, the high_in_treatment result under setting [4] is reported as “TRUE”.
The like results for “SPIB_GGGGGGTTCGTAGCAGAGC: library sgRNA targeting SPIB (as printed in the source, key not given here)” were, in that order, 6.2733, 1.2452, 3280.6 and “TRUE”.
Turning to “SPIB_GGGTACGGGGCATATGCCG: library sgRNA targeting SPIB (as printed in the source, key not given here)”, the score under setting [1] is 10.693. This substance also gave an LFC under setting [2] of 1.7824. Under setting [3], this substance registered a treat mean of 4360. Moreover, the high_in_treatment entry under setting [4] is “TRUE”.
